Measured values: patent US6458398B1, “Cold water disinfection of foods” (Eco Pure Food Safety Systems, Inc., priority 1999, dated 2002)

How the values were obtained:
Poliovirus type I = conditions: cited from earlier work
Naegleria gruberi = conditions: in 1.1 minutes, ozone-demand free phosphate buffer solution; cited from earlier work
[1] = test system: Escherichia coli (ATCC number 25922); assay: cold water washing of raw cabbage inoculated with E. coli suspension; conditions: 25 g raw cabbage, 10 minutes, 21° C., pH 7.5 (ozone only) or 8.5 (with FIT 0.6 g/L)
Candida tropicalis = conditions: in 0.30 minutes, ozone-demand free water; cited from earlier work
[2] = test system: bacterial spores (Bacillus subtilis v. globigii); conditions: within 1.5-2 minutes, water purged with 3% ozone by weight; cited from earlier work
[3] = relative to chlorine; cited from earlier work
[4] = test system: human immunodeficiency virus ("HIV"); conditions: non-toxic concentration of 4 μg ozone per ml of serum; cited from earlier work
Escherichia coli = conditions: in 19 minutes, raw waste water; cited from earlier work

Compound: O=[O+][O-] [ozone]
- ozone concentration giving a 99% reduction (Poliovirus type I): 0.2 mg/L
- ozone concentration giving a 99% reduction (Naegleria gruberi): 1.2 mg/L
- decrease in E. coli relative to the control [1]: 93%
- ozone concentration giving a 99% reduction (Candida tropicalis): 0.02 mg/L
- log reduction of bacterial spores [2]: four
- rate of disinfection, times faster than chlorine [3]: more than 3,000 times
- log reduction in the infectious titer [4]: six
- ozone concentration giving a 99% reduction (Escherichia coli): 2.2 mg/L
